{"source": "patent US5763442A", "about": "“Anti-parasitic activity” (Universiteit Van Pretoria, priority 1995, dated 1998)", "key": {"P. falciparum (RB-1)": {"system": "P. falciparum (RB-1)", "assay": "Direct antimalarial activity, flow cytometry, strain RB-1", "format": "cell-based, Plasmodium falciparum", "conditions": "for activity against the malaria microorganism Plasmodium falciparum: summary statement; for inhibition at 0.5 µg/mL: Plasmodium falciparum, 0.5 μg/ml, 48 h, FIG. 2, read-out: inhibition of growth of P. falciparum", "procedure": "To investigate the direct antimalarial activity of the riminophenazines B669, B4100, B4103, B4112, B4121, B4158 and B4169 against a laboratory strain of P. falciparum the following experiment was done:\nA laboratory strain of P. falciparum (RB-1; obtained from Dr B L Sharp, National Malaria Research Programme, MRC, Durban) was maintained.\nFor these experiments malaria cultures of haematocrit 5.0% and initial parasitemia 2.0% were used. The malaria infected erythrocytes (ring stage) were incubated in microtitre plates with serial dilutions of B669, B4100, B4103, B4112, B4121, B4158 and B4169 (0.125-2 μg/ml) for 48 hours and processed for analysis on the flow cytometer as described in Example 3."}, "P. falciparum (FAC 8)": {"system": "P. falciparum (FAC 8)", "assay": "Flow cytometry parasitaemia, chloroquine resistant strain FAC 8, chloroquine with/without B4112", "format": "cell-based, Plasmodium falciparum", "procedure": "To test the activity of B4112 to reverse chloroquine resistance in Plasmodium falciparum, the following experiment was done:\nA chloroquine resistant strain of P. falciparum (FAC 8) was obtained from Dr P Smith, University of Cape Town (originally from Dr A F Cowman, Royal Melbourne Hospital, Victoria, Australia).\nMalaria infected erythrocytes (ring stage) were diluted with human O-positive red blood cells together with RPMI containing 44 mg/l hypoxanthine and 10% human type A serum to a parasitaemia of 2% and a haematocrit of 5%. This suspension was incubated in a gassed desiccator (5% O2, 5% CO2 and 90% N2) with serial dilutions of chloroquine ranging from 61-500 nM in 96-well microtitre culture plates for 48 hours in the presence or absence of a fixed concentration of B4112 (100 ng/ml). Relevant solvent controls were included.\nAt the end of the incubation period, 100 μl of the medium was removed from each well and replaced with a fixation solution containing 10 mM TRIS, 10 mM Na-Azide and 150 mM Na Cl. The plates were stored overnight at 4° C. and then 25 μl aliquots from each well were stained in test tubes with 0.5 ml thiazole orange at a concentration of 0.25 μg/ml in phosphate-buffered saline (PBS). After an incubation period of 1 hour at room temperature (in the dark), the tubes were placed on ice and the level of parasitaemia determined by flow cytometry using a Coulter Epics Profile II (Coulter Electronics Ltd, Hialeah, PLA, USA)."}, "[1]": {"system": "Plasmodium falciparum (RB-9)", "assay": "3H-hypoxanthine uptake, chloroquine resistant strain (RB-9 [sic])", "format": "cell-based", "conditions": "read-out: PERCENTAGE INHIBITION (3H-hypoxanthine uptake)"}, "[2]": {"system": "Plasmodium falciparum (Fab-9)", "assay": "Microscopic parasitaemia, chloroquine sensitive strain Fab-9 (reversal of chloroquine resistance)", "format": "cell-based", "conditions": "24 h", "procedure": "(§1) The activity of riminophenazines to reverse chloroquine resistance in Plasmodium falciparum was tested in the following manner:\n(§2) A preliminary series of experiments were carried out using two laboratory strains of P. falciparum (RB-1 and Fab-9). These strains were obtained from the Medical Research Council, Durban, where they were characterised as being either mildly resistant or sensitive to chloroquine. The isolates were maintained in suspension culture in known manner (as described by Freese J A, Markus M B and Golenser J, 1991; Bulletin of the World Health Organization 69: 707-712).\n(§3) Infected erythrocytes were diluted with human O-positive red blood cells to a parasitaemia of 0.2-0.9% and suspended to 3% in RPMI containing 44 mg/l hypoxanthine and 10% human type O serum. Aliquots (100 μl) of the suspension were dispensed into the wells of 96-well microtitre plates. To these suspensions 100 μl of the medium were added containing either chloroquine or B669 alone or in combination. The final drug concentrations were 31, 62, 125, 250 500 and 1000 nM for chloroquine and 0.125, 0.25, 0.5 and 1.0 μg/ml for B669. Relevant solvent controls were included. The plates were incubated for 24 hours at 38° C. in a desiccator gassed with 5% O2, 5% CO2 and 90% N2. Thin blood smears were prepared from each well, stained with Giemsa stain and the percentage of red blood cells infected by at least one parasite determined microscopically."}, "[3]": {"system": "Plasmodium falciparum (RB-9)", "assay": "3H-hypoxanthine uptake, chloroquine resistant strain (RB-9 [sic])", "format": "cell-based", "conditions": "Plasmodium falciparum, read-out: PERCENTAGE INHIBITION (3H-hypoxanthine uptake)", "procedure": "(§4) The following experiment was done to confirm previous results which were obtained microscopically and details of which are set out in Example 1.\n(§5) For this experiment the same two strains of P. falciparum, as used in Example 1 (RB-1 and Fab-9) were again used. Infected erythrocytes were diluted with human O-positive red blood cells to a parasitaemia of 0.2-0.9% and suspended to 3% in RPMI containing 44 mg/l hypxanthine and 10% human type serum. Aliquots (100 μl) of the suspension were dispensed into the wells of 96-well microtitre plates. To these suspensions 100 μl of the medium were added containing either chloroquine or B669 alone or a combination of chloroquine and B669. Relevant solvent controls were included. Negative control wells were also included containing uninfected red blood cells. The plates were incubated at 38° C. in a desiccator gassed with 5% O2, 5% CO2 and 90% N2. After 24 hours 100 μl culture medium of each well was replaced with […] of hypoxathine--free medium containing 10% human serum and 0,5μ Ci^3 H-hypoxanthine and incubated for a further 18 hours. The contents of the wells were then harvested on to glass fibre filters. The filters were washed with distilled water, dried, haemoglobin dissolved in a sodium bicarbonate solution and placed in scintillation vials containing 4 ml scintillation fluid and counted for 5 min in a liquid scintillation counter.\n(§6) The percentage inhibition was calculated as follows: [formula] where CPM was the mean of two values of counts per minute for each treatment."}, "[4]": {"system": "Plasmodium falciparum (RB-1)", "assay": "Microscopic parasitaemia, chloroquine resistant strain RB-1 (reversal of chloroquine resistance)", "format": "cell-based", "conditions": "24 h", "procedure": "as §1, §2, §3"}, "[5]": {"system": "Plasmodium falciparum (Fab-9)", "assay": "3H-hypoxanthine uptake, chloroquine sensitive strain Fab-9", "format": "cell-based", "conditions": "Plasmodium falciparum, read-out: PERCENTAGE INHIBITION (3H-hypoxanthine uptake)", "procedure": "as §4, §5, §6"}, "malaria parasites": {"system": "malaria parasites", "conditions": "background, cited from earlier work"}}}
{"smiles": "CC1(C)CC(N=c2cc3n(-c4ccc(Cl)c(Cl)c4)c4ccccc4nc-3cc2Nc2ccc(Cl)c(Cl)c2)CC(C)(C)N1", "note": "[Compound B4100, N,5-bis(3,4-dichlorophenyl)-3,5-dihydro-3-[(2',2',6',6'-tetramethyl-4-piperidyl)-imino]-2-phenazinamine]", "values": [{"measurement": "activity against the malaria microorganism Plasmodium falciparum", "setting": "P. falciparum (RB-1)", "value": "good activity"}]}
{"smiles": "CC1(C)CC(N=c2cc3n(-c4ccc(C(F)(F)F)cc4)c4ccccc4nc-3cc2Nc2ccc(C(F)(F)F)cc2)CC(C)(C)N1", "note": "[Compound B4103, N,5-bis(4-trifluoromethylphenyl)-3,5-dihydro-3[(2',2',6',6'-tetramethyl-4-piperidyl)imino]-2-phenazinamine]", "values": [{"measurement": "inhibition at 0.5 µg/mL", "setting": "P. falciparum (RB-1)", "value": "> 50", "unit": "%"}]}
{"smiles": "CC1(C)CC(N=c2cc3n(-c4cccc(Cl)c4)c4ccccc4nc-3cc2Nc2cccc(Cl)c2)CC(C)(C)N1", "note": "[Compound B4112, N,5-bis(3-chlorophenyl)-3,5-dihydro-3-[(2',2',6',6'-tetramethyl-4-piperidyl)-imino]-2-phenazinamine]", "values": [{"measurement": "sensitivity of P. falciparum to chloroquine (inhibition)", "setting": "P. falciparum (FAC 8); B4112 100 ng/ml + chloroquine 125 nM, FIG. 1", "value": 100, "unit": "%"}, {"measurement": "inhibition of parasite growth", "setting": "P. falciparum (FAC 8); B4112 per se 100 ng/ml, 48 h", "value": 27, "unit": "%"}, {"measurement": "interaction of B4112 and chloroquine", "setting": "P. falciparum (FAC 8); FAC 8", "value": "clearly interacted synergistically"}, {"measurement": "inhibition at 0.5 µg/mL", "setting": "P. falciparum (RB-1)", "value": "> 50", "unit": "%"}, {"measurement": "activity against the malaria microorganism Plasmodium falciparum", "setting": "P. falciparum (RB-1)", "value": "good activity"}]}
{"smiles": "CC1(C)CC(N=c2cc3n(-c4cc(Cl)cc(Cl)c4)c4ccccc4nc-3cc2Nc2cc(Cl)cc(Cl)c2)CC(C)(C)N1", "note": "[Compound B4121, N,5-bis(3,5-dichlorophenyl)-3,5-dihydro-3-[(2',2',6',6'-tetramethyl-4-piperidyl)-imino]-2-phenazinamine]", "values": [{"measurement": "activity against the malaria microorganism Plasmodium falciparum", "setting": "P. falciparum (RB-1)", "value": "good activity"}]}
{"smiles": "CC(C)c1ccc(Nc2cc3nc4ccccc4n(-c4ccc(C(C)C)cc4)c-3cc2=NC2CC(C)(C)NC(C)(C)C2)cc1", "note": "[Compound B4158, N,5-bis(4-isopropylphenyl)-3,5-dihydro-3-[(2',2',6',6'-tetramethyl-4-piperidyl)-imino]-2-phenazinarnine]", "values": [{"measurement": "inhibition at 0.5 µg/mL", "setting": "P. falciparum (RB-1)", "value": "> 50", "unit": "%"}, {"measurement": "activity against the malaria microorganism Plasmodium falciparum", "setting": "P. falciparum (RB-1)", "value": "good activity"}]}
{"smiles": "CCN(CC)CCCC(C)Nc1ccnc2cc(Cl)ccc12", "note": "(centres unmarked) [chloroquine, reference compound]", "values": [{"measurement": "minimal effective concentration", "setting": "P. falciparum (FAC 8); Plasmodium falciparum, 48 h, read-out: concentration at which chloroquine per se inhibited the growth of the parasite", "value": "≥ 0.25", "unit": "µM"}, {"measurement": "inhibition at 0.125 µM", "setting": "P. falciparum (FAC 8); Plasmodium falciparum, read-out: sensitivity of P. falciparum to chloroquine (inhibition)", "value": 33, "unit": "%"}, {"measurement": "inhibition at 0.5 µM", "setting": "[1]", "value": 100, "unit": "%"}, {"measurement": "Percentage red blood cells infected with P. falciparum (Fab-9)", "setting": "[2]; chloroquine 31 nM alone", "value": 4.9, "unit": "%"}, {"measurement": "Percentage red blood cells infected with P. falciparum (Fab-9)", "setting": "[2]; chloroquine 62 nM alone", "value": 3.9, "unit": "%"}, {"measurement": "Percentage red blood cells infected with P. falciparum (Fab-9)", "setting": "[2]; chloroquine 125 nM alone, *parasites morphologically abnormal", "value": 2.4, "unit": "%"}, {"measurement": "Percentage red blood cells infected with P. falciparum (Fab-9)", "setting": "[2]; chloroquine 250 nM alone, *parasites morphologically abnormal", "value": 3.1, "unit": "%"}, {"measurement": "Percentage red blood cells infected with P. falciparum (Fab-9)", "setting": "[2]; chloroquine 500 nM alone, *parasites morphologically abnormal", "value": 0.1, "unit": "%"}, {"measurement": "Percentage red blood cells infected with P. falciparum (Fab-9)", "setting": "[2]; chloroquine 1000 nM alone", "value": 0, "unit": "%"}, {"measurement": "inhibition at 0.031 µM", "setting": "[3]", "value": 0, "unit": "%"}, {"measurement": "inhibition at 0.062 µM", "setting": "[3]", "value": 0, "unit": "%"}, {"measurement": "inhibition at 0.125 µM", "setting": "[3]", "value": 8, "unit": "%"}, {"measurement": "inhibition at 0.25 µM", "setting": "[3]", "value": 33, "unit": "%"}, {"measurement": "inhibition at 1 µM", "setting": "[3]", "value": 100, "unit": "%"}, {"measurement": "Percentage red blood cells infected with P. falciparum (RB-1)", "setting": "[4]; chloroquine 31 nM alone", "value": 3.5, "unit": "%"}, {"measurement": "Percentage red blood cells infected with P. falciparum (RB-1)", "setting": "[4]; chloroquine 62 nM alone", "value": 3.3, "unit": "%"}, {"measurement": "Percentage red blood cells infected with P. falciparum (RB-1)", "setting": "[4]; chloroquine 125 nM alone", "value": 3.3, "unit": "%"}, {"measurement": "Percentage red blood cells infected with P. falciparum (RB-1)", "setting": "[4]; chloroquine 250 nM alone", "value": 3.1, "unit": "%"}, {"measurement": "Percentage red blood cells infected with P. falciparum (RB-1)", "setting": "[4]; chloroquine 500 nM alone", "value": 3.0, "unit": "%"}, {"measurement": "Percentage red blood cells infected with P. falciparum (RB-1)", "setting": "[4]; chloroquine 1000 nM alone", "value": 0.4, "unit": "%"}, {"measurement": "inhibition at 0.031 µM", "setting": "[5]", "value": 52.5, "unit": "%"}, {"measurement": "inhibition at 0.062 µM", "setting": "[5]", "value": 23.5, "unit": "%"}, {"measurement": "inhibition at 0.125 µM", "setting": "[5]", "value": 48.7, "unit": "%"}, {"measurement": "inhibition at 0.25 µM", "setting": "[5]", "value": 66.9, "unit": "%"}, {"measurement": "inhibition at 0.5 µM", "setting": "[5]", "value": 100, "unit": "%"}, {"measurement": "inhibition at 1 µM", "setting": "[5]", "value": 100, "unit": "%"}]}
{"smiles": "COc1ccc(CCN(C)CCCC(C#N)(c2ccc(OC)c(OC)c2)C(C)C)cc1OC", "note": "(centres unmarked) [verapamil]", "values": [{"measurement": "reversal of Pg H1-mediated chloroquine resistance", "setting": "malaria parasites", "value": "can be reversed"}, {"measurement": "side effects of the dose required to reverse resistance", "setting": "malaria parasites; in vivo", "value": "severe side effects in vivo"}]}
